Legend:
[1] = target: hMOR; set-up: method as in PMID 15094830, PMID 32365707; conditions: Figure 1B; read-out: Ki (CHO-hMOR); cited from earlier work
[2] = system: hMOR; set-up: method as in PMID 15094830, PMID 32365707; conditions: Figure 1B; read-out: EC50 (CHO-hMOR); cited from earlier work
[3] = target: T1, human recombinant MOR (Homo sapiens, UniProt P35372); experiment: Calcium mobilization assay, CHO MOR cells with Gαqi5; assay type: cell-based; conditions: intrinsic activity: Emax of ligand / Emax of dermorphin
T1 construct: expressed in transfected cells; host or cells: CHO cells (gift from Prof. Girolamo Calo', Ferrara University)
T1 sequence (P35372 whole entry): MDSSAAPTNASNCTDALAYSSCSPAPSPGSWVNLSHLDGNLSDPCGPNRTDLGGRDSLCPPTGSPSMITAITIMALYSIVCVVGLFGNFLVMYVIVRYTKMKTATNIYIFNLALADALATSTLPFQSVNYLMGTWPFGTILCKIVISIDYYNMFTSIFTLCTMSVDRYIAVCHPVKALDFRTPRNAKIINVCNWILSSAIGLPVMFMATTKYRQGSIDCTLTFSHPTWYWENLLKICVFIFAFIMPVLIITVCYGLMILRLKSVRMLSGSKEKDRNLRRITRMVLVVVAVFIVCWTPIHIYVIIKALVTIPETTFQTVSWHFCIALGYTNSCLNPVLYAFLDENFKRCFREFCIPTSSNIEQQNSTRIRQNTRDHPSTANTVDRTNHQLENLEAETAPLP

[4] = target: T2, human recombinant KOR (Homo sapiens, UniProt P41145); experiment: Calcium mobilization assay, CHO KOR cells with Gαqi5; assay type: cell-based
T2 construct: expressed in transfected cells; host or cells: CHO cells (gift from Prof. Girolamo Calo', Ferrara University)
T2 sequence (P41145 whole entry): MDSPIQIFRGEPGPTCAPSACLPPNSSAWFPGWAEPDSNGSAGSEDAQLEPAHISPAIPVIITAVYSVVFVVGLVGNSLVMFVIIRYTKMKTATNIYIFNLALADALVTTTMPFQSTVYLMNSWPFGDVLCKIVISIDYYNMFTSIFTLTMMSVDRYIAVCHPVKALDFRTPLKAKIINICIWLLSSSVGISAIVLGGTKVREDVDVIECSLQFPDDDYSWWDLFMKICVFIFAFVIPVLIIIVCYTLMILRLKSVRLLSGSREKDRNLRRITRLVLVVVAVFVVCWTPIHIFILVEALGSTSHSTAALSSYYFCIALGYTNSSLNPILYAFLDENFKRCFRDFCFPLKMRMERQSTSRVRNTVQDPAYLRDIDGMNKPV

[5] = target: T3, human recombinant DOR (Homo sapiens, UniProt P41143); set-up: method as in PMID 23007594; conditions: data from reported literature ref 30, cited from earlier work
T3 construct: expressed in transfected cells; host or cells: CHO cells (gift from Prof. Girolamo Calo', Ferrara University)
T3 sequence (P41143 whole entry): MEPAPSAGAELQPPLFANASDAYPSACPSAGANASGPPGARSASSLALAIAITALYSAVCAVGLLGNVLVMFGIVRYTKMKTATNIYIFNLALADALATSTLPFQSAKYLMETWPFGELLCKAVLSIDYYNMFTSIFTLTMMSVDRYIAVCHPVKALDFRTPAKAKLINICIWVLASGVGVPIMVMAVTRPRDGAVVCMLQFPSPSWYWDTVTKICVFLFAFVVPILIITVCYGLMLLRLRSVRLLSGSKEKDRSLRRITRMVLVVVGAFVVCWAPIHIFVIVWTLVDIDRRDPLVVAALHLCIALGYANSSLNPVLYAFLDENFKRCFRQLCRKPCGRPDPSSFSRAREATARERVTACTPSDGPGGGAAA

[6] = target: hNK3; set-up: method as in PMID 17728699; conditions: Figure 1A; cited from earlier work
[7] = system: NK3 receptor; set-up: method as in PMID 17728699; conditions: Figure 1A; cited from earlier work
[8] = system: NK3 receptor; set-up: method as in PMID 17728699; conditions: Figure 1A; cited from earlier work; remark: listed apart in the source

In the case of `Cc1cc(O)cc(C)c1C[C@H](N)C(=O)N[C@H](CCCNC(=N)N)C(=O)N[C@@H](Cc1ccccc1)C(=O)N[C@@H](CCCCN)C(N)=O` [Dmt-DALDA, H-Dmt-D-Arg-Phe-Lys-NH2], the Ki [1] is given as 0.23 nM and the EC50 [2] is given as 0.51 nM.

In the case of `C[C@@H](NC(=O)[C@@H](N)Cc1ccc(O)cc1)C(=O)N[C@@H](Cc1ccccc1)C(=O)NCC(=O)N[C@@H](Cc1ccc(O)cc1)C(=O)N1CCC[C@H]1C(=O)N[C@@H](CO)C(N)=O` [dermorphin, reference compound], the “MOR α ± SEM” value [3] is reported as 1.00, the “KOR EC50 ± SEM (nM)” value ([4]; calcium mobilization, CHO KOR Gαqi5, maximum tested concentration 10 µM, crc = concentration-response curve) is reported as “inactive” and the “KOR α ± SEM” value ([4]; intrinsic activity: Emax of ligand / Emax of dynorphin A) is reported as “inactive”. For the same compound, the “DOR EC50 ± SEM (nM)” value ([5]; calcium mobilization, chimeric G protein) was “Inactive ^a” and the “DOR α ± SEM” value ([5]; intrinsic activity) was “Inactive ^a”.

For `CC[C@H](NC(=O)c1c(O)c(-c2ccccc2)nc2ccccc12)c1ccccc1` [Talnetant], the Ki [6] is given as 2 nM, the “pA2 (IP accumulation)” value [7] is given as 7.7 and the “pA2 (Ca2+ mobilisation)” value [8] is given as 8.1.
